Assay results as given in patent US11084783B2, “O-alkyl-benzylideneguanidine derivatives and therapeutic use for the treatment of disorders associated with an accumulation of misfolded proteins” (INFLECTIS BIOSCIENCE, priority 2014, dated 2021).

What was measured:
[1] = test system: HeLa cells; assay: Cytoprotection from ER stress (tunicamycin), cell viability by WST-8; assay type: cell-based; design: key to Cytoprotection from ER stress compared to guanabenz: +: lower cytoprotective effect compared to Guanabenz; ++: similar cytoprotective effect compared to Guanabenz; +++: higher cytoprotective effect compared to Guanabenz; details: for Cytoprotection from ER stress compared to guanabenz: HeLa cells, 6 hour exposure to tunicamycin 5 μg/mL, compounds 0.5-10 μM, viability 48 h or 72 h
Description: Cytoprotection against ER stress can be measured by a suitable assay. For example, cytoprotection can be measured in HeLa cells in which ER stress is elicited by the addition of media containing tunicamycin, a mixture of homologous nucleoside antibiotics that inhibits the UDP-HexNAc: polyprenol-P HexNAc-1-P family of enzymes and is used to induce unfolded protein response. Cell viability can be detected in the presence and absence of inhibitor compounds after a set period of time, by measuring the reduction of WST-8 into formazan using a standard cell viability kit (such as Cell Viability Counting Kit-8 from Dojindo). Cytoprotection from ER stress is measured in terms of the percentage increase in viable cells (relative to control) after ER stress. Further details of a suitable assay are set forth in the accompanying Examples section.
This assay is described in Tsaytler et al. (Science 2011). HeLa Cells were cultured in Eagle's Minimum Essential Medium (EMEM) supplemented with Glutamine, Sodium Pyruvate, Non-Essential Amino Acids, Penicillin and Streptomycin containing 10% Foetal Bovine Serum (FBS), at 37° C. in 5% CO2 atmosphere. Cells were plated in 96 well plates at a density of 17,000 cells/mL the day before the treatment. ER stress was elicited by addition of 5 μg/mL tunicamycin (Sigma-Aldrich) together with PPP1R15A inhibitors (0.5-10 μM). Media were changed 6h later with fresh media and the cytoprotection was maintained by the addition of PPP1R15A inhibitors (0.5-10 μM). Cell viability was assessed by measuring the reduction of WST-8 into formazan using Cell Counting Kit-8 (Sigma) according to the supplier's recommendation, 48 h or 72h after tunicamycin treatment. Cytoprotection from ER stress is measured in terms of cytoprotective potency effect compared to the reference compound Guanabenz (Tsaytler et al., Science 2011) after ER stress: • ‘+’ no cytoprotective effect; • ‘+’ lower cytoprotective effect compared to Guanabenz; • ‘++’ similar cytoprotective effect compared to Guanabenz; • ‘+++’ higher cytoprotective effect compared to Guanabenz.
Table 1 summarizes the results of cytoprotective effect of different compounds of the invention, compared to guanabenz, after the stress induced by a 6 hour exposure of tunicamycin.

[2] = test system: interferon-gamma injured rat oligodendrocytes; assay: In vitro multiple sclerosis model: interferon-gamma injured rat oligodendrocytes co-cultured with neurons; assay type: cell-based; details: interferon-gamma 70 U/ml, 48 H; total number of O4 cells
Protocol: Neurons/OPC were cultured as previously describes by Yang et al. (2005 J Neurosci Methods;149(1) pp50-6) with modifications. Briefly, the full brain (without cerebellum) obtained from 17-day old rat embryos (Wistar, Janvier labs) were removed. The full brains were treated for 20 min at 37° C. with a trypsin-EDTA (Pan Biotech) solution at a final concentration of 0.05% trypsin and 0.02% EDTA. The dissociation was stopped by addition of Dulbecco's modified Eagle's medium (DMEM) with 4.5 g/liter of glucose (Pan Biotech), containing DNAse I grade II (final concentration 0.5 mg/ml; Pan Biotech, Batch: h140508) and 10% fetal calf serum (FCS; Invitrogen, Batch: 41Q7218K). Cells were mechanically dissociated by three forced passages through the tip of a 10-ml pipette. Cells were then centrifuged at 515 g for 10 min at 4° C. The supernatant was discarded, and the pellet was resuspended in a defined culture medium consisting of Neurobasal medium (Invitrogen, Batch: 1636133) with a 2% solution of B27 supplement (Invitrogen, Batch: 1660670), 2 mmol/liter of L-glutamine (Pan Biotech), 2% of PS solution, and, 1% of FCS and 10 ng/ml of platelet derived growth factor (PDGF-AA, Batch: H131205). The cells were seeded at a density of 20 000 cells per well in 96 well plates precoated with PLL (BD corning, Batch: 6614022) and laminine (Sigma, Batch: 083M4034V). The plates were maintained at 37° C. into a humidified incubator, in an atmosphere of air (95%)-CO2 (5%). Half of the medium was changed every 2 days with fresh medium. On days 18, test compounds were pre-incubated 1 hour before interferon-gamma (70 U/ml, 48H, R&D system, Batch: AAL2214081) application.
On day 18 of culture, test compounds (4 concentrations) were solved in culture medium and then pre-incubated with oligodendrocyte co-cultured with neurons for 1 hour before the interferon-gamma (70 U/ml, 48H) application. […]
For each condition, 30 pictures per well were taken using ImageXpress (Molecular Device) with 20× magnification. […] All values were expressed as mean +/−SEM (s.e.mean) (n=6 wells per condition).

SMILES	protection of Hela cells from ER stress (FIG. 1) ([1]; ER stress induced by 6 hour exposure to tunicamycin)	Cytoprotection from ER stress compared to guanabenz [1]	protection of interferon-gamma injured rat oligodendrocytes (FIG. 2) [2]
CCCONC(=N)N/N=C/c1ccccc1Cl [Compound 12, 2-(2-chlorobenzylidene)-N-propoxyhydrazinecarboximidamide]	dose dependent protection	+++	dose dependent protection
CCONC(=N)N/N=C/c1c(F)cccc1Cl [Compound 17, 2-(2-chloro-6-fluorobenzylidene)-N-ethoxyhydrazinecarboximidamide]		+++	dose dependent protection
CCO/N=C(\N)N/N=C/c1ccccc1Cl [Compound 10, 2-(2-chlorobenzylidene)-N′-ethoxyhydrazinecarboximidamide]		++	
CCONC(=N)N/N=C/c1c(Cl)cccc1Cl [Compound 11, 2-(2,6-dichlorobenzylidene)-N-ethoxyhydrazinecarboximidamide]		+++	dose dependent protection
